Structures can show the parent of a compound that is named as a salt.

This note sets out measurements from US4767749A, “Ester of (triarylphosphoranylidene)carbamic acid having diuretic and ability to lower plasma renin properties” (American Cyanamid Company, priority 1986, dated 1988).

For the assay, the system named is spontaneously hypertensive rats (SHR). Kind of assay: Diuretic activity in spontaneously hypertensive rats. In kind it is in vivo, male spontaneously hypertensive rats (Okamoto strain). The following applies: 100 mg/kg by gavage with 0.9% sodium chloride loading 25 ml/kg; 0-5 hour urine. As for the experimental part:
The diuretic activity of the compounds of this invention was also determined according to the method of Chan, P. S. and Poorvin, D., Sequential method for combined screening antihypertensive and diuretic agents in the same spontaneously hypertensive rat. Clinical and Experimental Hypertension, 1(6), 817-830 (1979).
Male spontaneously hypertensive rats (SHR) of Okamoto strain, 16 weeks old, Taconic Farms Inc. were used in the test. These rats were kept on Purina laboratory chow and tap water ad libitum for 8 weeks before use. One male adult rat (about 300 g) was dosed by gavage with a test compound at 100 mg/kg together with 0.9% sodium chloride loading at 25 ml/kg at zero hour. The test compound was suspended in 3% preboiled starch at 50 mg/ml. The rat was put in a metabolism cage. The 0-5 hour urine was collected and urinary sodium and potassium were determined using a Beckman Astra 4. The effects of representative compounds of the invention according to this test appear in Table III expressed in milliequivalents (mEQ) of urinary sodium and potassium excreted.
Consider `CCc1ccccc1P(=NC(=O)OC)(c1ccccc1)c1ccccc1` [[(2-ethylphenyl)diphenylphosphoranylidene]carbamic acid, methyl ester], for which the “Potassium (urinary excretion)” value turned out to be 0.58 mEQ/5 Hours, the “Sodium (urinary excretion)” value is given as 1.36 mEQ/5 Hours and the “Volume (urine)” value came out at 14.3 mL.

For the compound `CCOC(=O)N=P(c1ccccc1)(c1ccccc1)c1ccccc1C(C)C` [[[2-(1-Methylethyl)phenyl]diphenylphosphoranylidene]carbamic acid, ethyl ester], the “Potassium (urinary excretion)” value is recorded as 0.83 mEQ/5 Hours, the “Sodium (urinary excretion)” value was 2.08 mEQ/5 Hours and the “Volume (urine)” value was found to be 18.8 mL.

In the case of `C[C@@H]1CCC[C@H]1OC(=O)N=P(c1ccccc1)(c1ccccc1)c1ccccc1` (relative stereo) [(triphenylphosphoranylidene)carbamic acid, trans-2-methylcyclopentyl ester], the “Potassium (urinary excretion)” value was found to be 0.68 mEQ/5 Hours, the “Sodium (urinary excretion)” value came to 1.55 mEQ/5 Hours and the “Volume (urine)” value was 14.3 mL.

Take `O=C(N=P(c1ccccc1)(c1ccccc1)c1ccccc1)OC(C1CC1)C1CC1` [(triphenylphosphoranylidene)carbamic acid, dicyclopropylmethyl ester]: the “Potassium (urinary excretion)” value is given as 1.07 mEQ/5 Hours, the “Sodium (urinary excretion)” value was 1.58 mEQ/5 Hours and the “Volume (urine)” value was 14.3 mL.

In the case of `CCOC(=O)N=P(c1ccccc1)(c1ccccc1)c1c(C)cccc1C` [[[(2,6-dimethylphenyl)diphenyl]phosphoranylidene]carbamic acid, ethyl ester], the “Potassium (urinary excretion)” value is 0.86 mEQ/5 Hours, the “Sodium (urinary excretion)” value came out at 1.48 mEQ/5 Hours and the “Volume (urine)” value is 13.0 mL.

For the compound `O=C(N=P(c1ccccc1)(c1ccccc1)c1ccccc1C(F)(F)F)OC1CCOC1` (stereo not drawn) [[diphenyl[2-(trifluoromethyl)phenyl]phosphoranylidene]carbamic acid, tetrahydro-3-furanyl ester], the “Potassium (urinary excretion)” value is recorded as 0.63 mEQ/5 Hours, the “Sodium (urinary excretion)” value amounted to 1.64 mEQ/5 Hours and the “Volume (urine)” value turned out to be 16.3 mL.

For `CCO[C@@H]1CCC[C@H]1OC(=O)N=P(c1ccccc1)(c1ccccc1)c1ccccc1` (relative stereo) [(triphenylphosphoranylidene)carbamic acid, trans-2-ethoxycyclopentyl ester], the “Potassium (urinary excretion)” value was 0.73 mEQ/5 Hours, the “Sodium (urinary excretion)” value came out at 1.38 mEQ/5 Hours and the “Volume (urine)” value is 13.3 mL.

Consider `CCOC(=O)N=P(c1ccccc1)(c1ccccc1)c1cccc(Cl)c1Cl` [[(2,3-dichlorophenyl)diphenylphosphoranylidene]carbamic acid ethyl ester], for which the “Potassium (urinary excretion)” value is 0.86 mEQ/5 Hours, the “Sodium (urinary excretion)” value is given as 1.83 mEQ/5 Hours and the “Volume (urine)” value was 14.3 mL.

Regarding `CO[C@@H]1CCCC[C@H]1OC(=O)N=P(c1ccccc1)(c1ccccc1)c1ccccc1` (relative stereo) [(triphenylphosphoranylidene)carbamic acid, trans-2-methoxycyclohexyl ester], the “Potassium (urinary excretion)” value is recorded as 0.67 mEQ/5 Hours, the “Sodium (urinary excretion)” value worked out at 1.45 mEQ/5 Hours and the “Volume (urine)” value came to 12.8 mL.

As for `O=C(N=P(c1ccccc1)(c1ccccc1)c1ccccc1Cl)OC1CCOC1` (stereo not drawn) [[(2-chlorophenyl)diphenylphosphoranylidene]carbamic acid, tetrahydro-3-furanyl ester], the “Potassium (urinary excretion)” value came out at 0.68 mEQ/5 Hours, the “Sodium (urinary excretion)” value is reported as 1.90 mEQ/5 Hours and the “Volume (urine)” value was determined as 20.0 mL.

On to `O=C(N=P(c1ccccc1)(c1ccccc1)c1ccccc1)OCC1CC1` [(Triphenylphosphoranylidene)carbamic acid, cyclopropylmethyl ester], for which the “Potassium (urinary excretion)” value was 0.57 mEQ/5 Hours, the “Sodium (urinary excretion)” value was 2.00 mEQ/5 Hours and the “Volume (urine)” value amounted to 19.5 mL.

As for `O=C(N=P(c1ccccc1)(c1ccccc1)c1ccccc1)OCc1ccncc1` [(triphenylphosphoranylidene)carbamic acid, 4-pyridinylmethyl ester], the “Potassium (urinary excretion)” value is given as 0.70 mEQ/5 Hours, the “Sodium (urinary excretion)” value is on record as 1.50 mEQ/5 Hours and the “Volume (urine)” value is 16.5 mL.

Consider `CCOC(=O)N=P(c1ccccc1)(c1cccc(Cl)c1)c1cccc(Cl)c1` [[[bis(3-chlorophenyl)phenyl]phosphoranylidene]carbamic acid, ethyl ester], for which the “Potassium (urinary excretion)” value amounted to 0.89 mEQ/5 Hours, the “Sodium (urinary excretion)” value is given as 1.84 mEQ/5 Hours and the “Volume (urine)” value amounted to 18.3 mL.

Regarding `N=P(c1ccccc1)(c1ccccc1)c1ccccc1` [Triphenylphosphinimide sulfate], the “Potassium (urinary excretion)” value is 0.65 mEQ/5 Hours, the “Sodium (urinary excretion)” value stood at 1.25 mEQ/5 Hours and the “Volume (urine)” value came to 12.0 mL.

For the compound `CC(OC(=O)N=P(c1ccccc1)(c1ccccc1)c1ccccc1)C1CC1` (stereo not drawn) [(triphenylphosphoranylidene)carbamic acid, 1-cyclopropylethyl ester], the “Potassium (urinary excretion)” value is recorded as 0.65 mEQ/5 Hours, the “Sodium (urinary excretion)” value came to 1.19 mEQ/5 Hours and the “Volume (urine)” value turned out to be 12.0 mL.

As for `O=C(N=P(c1ccccc1)(c1ccccc1)c1ccccc1)OC1C=CCC1` (stereo not drawn) [(triphenylphosphoranylidene)carbamic acid, 2-cyclopenten-1-yl ester], the “Potassium (urinary excretion)” value was found to be 0.83 mEQ/5 Hours, the “Sodium (urinary excretion)” value is 1.58 mEQ/5 Hours and the “Volume (urine)” value stood at 15.5 mL.

For `CC1CC1COC(=O)N=P(c1ccccc1)(c1ccccc1)c1ccccc1` (stereo not drawn) [(triphenylphosphoranylidene)carbamic acid, (2-methylcyclopropyl)methyl ester], the “Potassium (urinary excretion)” value amounted to 0.47 mEQ/5 Hours, the “Sodium (urinary excretion)” value came out at 1.28 mEQ/5 Hours and the “Volume (urine)” value is 11.3 mL.

`CO[C@@H]1CCC[C@H]1OC(=O)N=P(c1ccccc1)(c1ccccc1)c1ccccc1` (relative stereo) [(triphenylphosphoranylidene)carbamic acid, trans-2-methoxycyclopentyl ester]: the “Potassium (urinary excretion)” value stood at 0.72 mEQ/5 Hours, the “Sodium (urinary excretion)” value stood at 1.83 mEQ/5 Hours and the “Volume (urine)” value came out at 17.0 mL.

Consider `CC1(OC(=O)N=P(c2ccccc2)(c2ccccc2)c2ccccc2)CCCC1` [(Triphenylphosphoranylidene)carbamic acid, 1-methylcyclopentyl ester], for which the “Potassium (urinary excretion)” value came to 0.86 mEQ/5 Hours, the “Sodium (urinary excretion)” value is recorded as 1.49 mEQ/5 Hours and the “Volume (urine)” value is 14.8 mL.

With `CCCC1(OC(=O)N=P(c2ccccc2)(c2ccccc2)c2ccccc2)CCCC1` [(triphenylphosphoranylidene)carbamic acid, 1-propylcyclopentyl ester], the “Potassium (urinary excretion)” value worked out at 0.63 mEQ/5 Hours, the “Sodium (urinary excretion)” value came out at 1.14 mEQ/5 Hours and the “Volume (urine)” value came out at 10.3 mL.

In the case of `CCOC(=O)N=P(c1ccccc1)(c1ccccc1)c1cccc(F)c1` [[[(3-fluorophenyl)diphenylphosphoranylidene]carbamic acid, ethyl ester], the “Potassium (urinary excretion)” value is listed as 0.62 mEQ/5 Hours, the “Sodium (urinary excretion)” value is given as 2.44 mEQ/5 Hours and the “Volume (urine)” value was found to be 24.0 mL.

Regarding `CCOC(=O)N=P(c1ccccc1)(c1ccccc1)c1ccccc1Br` [[(2-bromophenyl)diphenylphosphoranylidene]carbamic acid, ethyl ester], the “Potassium (urinary excretion)” value is on record as 0.68 mEQ/5 Hours, the “Sodium (urinary excretion)” value is 2.51 mEQ/5 Hours and the “Volume (urine)” value is 22.5 mL.

As to `CCOC(=O)N=P(c1ccccc1)(c1ccccc1)c1cccc(Br)c1` [[(3-Bromophenyl)diphenylphosphoranylidene]carbamic acid, ethyl ester], the “Potassium (urinary excretion)” value turned out to be 0.78 mEQ/5 Hours, the “Sodium (urinary excretion)” value is 1.16 mEQ/5 Hours and the “Volume (urine)” value worked out at 12.4 mL.

As for `O=C(N=P(c1ccccc1)(c1ccccc1)c1ccccc1)OCC1CCC1` [(Triphenylphosphoranylidene)carbamic acid, cyclobutylmethyl ester], the “Potassium (urinary excretion)” value is on record as 0.60 mEQ/5 Hours, the “Sodium (urinary excretion)” value was determined as 1.47 mEQ/5 Hours and the “Volume (urine)” value came out at 14.5 mL.

Turning to `CCOC(=O)N=P(c1ccccc1)(c1ccccc1)c1cccc(C(F)(F)F)c1` [[(3-trifluorophenyl)diphenylphosphoranylidene]carbamic acid, ethyl ester], the “Potassium (urinary excretion)” value came out at 0.67 mEQ/5 Hours, the “Sodium (urinary excretion)” value is 1.38 mEQ/5 Hours and the “Volume (urine)” value amounted to 13.5 mL.

Consider `COC(=O)N=P(c1ccccc1)(c1ccccc1)c1cccc(Cl)c1` [[(3-chlorophenyl)diphenylphosphoranylidene]carbamic acid, methyl ester], for which the “Potassium (urinary excretion)” value is given as 0.60 mEQ/5 Hours, the “Sodium (urinary excretion)” value amounted to 2.45 mEQ/5 Hours and the “Volume (urine)” value was found to be 23.0 mL.

Consider `CCOC(=O)N=P(c1ccccc1)(c1ccccc1Cl)c1ccccc1Cl` [[bis(2-chlorophenyl)phenylphosphoranylidene]carbamic acid, ethyl ester], for which the “Potassium (urinary excretion)” value was found to be 0.38 mEQ/5 Hours, the “Sodium (urinary excretion)” value was determined as 2.40 mEQ/5 Hours and the “Volume (urine)” value was found to be 22.3 mL.
